For one data set, the system named is HIV. The data set is described as follows: Anti-HIV activity: HIV antigen positive MT-4 cells by immunofluorescence (Pharmacological Tests 1 and 3). The data set is classed as cell-based. As for the experimental part:
(§1) A medium in which MT-4 cell [Miyoshi I. et al., Gann Monogr., 28, 219-228 (1982)] was included in a proportion of 2×10^5 cell/ml medium (RPMI-1640+10%FCS) was prepared. To each of 500 μl portion of the medium were added sulfated colominic acid obtained from examples 1 and 2 at a concentration shown in table 1. After two hours addition of the esters, HIV was infected to cells in each well in the proportion of 5×10^3 PFU/well. After 4 days from HIV infection, smear of MT-4 cell was prepared to detect HIV antigen positive cells by immunofluorescence (Harada S. et al., Science, 229, 563-566 (1985); Takeuchi Y., et al., Jpn. J. Cancer Res. (Gann), 78, 11-15 (1987)).
An anti-HIV activity of colominic acid which is a starting material in place of sulfated colominic acid was determined in the same manner as above.
(§2) In tables 1 and 3, a sample having a concentration of sulfated colominic acid of zero was regarded as control. In table 2, "--" indicates no toxicity.
(§3) In order to determine the minimum number of monomer unit of N-acetylneuraminic acid homopolymer, sulfate esters of formula (I) in which n is 1-6 were produced. A cytotoxicity and an anti-HIV activity of each sulfate ester were determined in the same manner as pharmacological tests 1 and 2.

A further data set relates to MT-4 cell. Put plainly: Cytotoxicity on MT-4 cells (Pharmacological Tests 1, 2 and 3). The class given is cell-based. On the set-up: key to Toxicity: --: no cytotoxicity or no anti-HIV activity; key to Cytotoxicity: --: no toxicity. Particulars: for Cytotoxicity: Table 2; for Toxicity: Table 4. The protocol: as §1, §2
A cytotoxicity of sulfated colominic acid was assayed in the same manner as Pharmacological Test 1. Specifically, after MT-4 cell prepared at a concentration of 1×10^5 cell/ml was cultured for 4 days in the presence of a variety of concentrations of sulfated colominic acid, the number of cells was counted. Cytotoxicity was evaluated by calculating a cell survival ratio in each final concentration of sulfated colominic acid taking as 100% the cell survival ratio of control, in which final concentration of sulfated colominic acid is zero.
as §3

From patent US5637690A, “Sulfate of n-acetylneuraminic acid homopolymer and processes for making and using the same” (Marukin Shoyu Co., Ltd., priority 1993, dated 1997) come the findings set out here.

On to colominic acid [reference compound], for which the “anti-HIV activity (in words)” value in the data set on HIV (Table 2, 1-100 μg/ml) is “does not have an anti-HIV activity”. Also, the “Cell infection ratio” value is given as greater than 95% in the data set with HIV (Table 2, final concentration 1 μg/ml); greater than 95% in the data set with HIV (Table 2, final concentration 3 μg/ml); greater than 95% in the data set on HIV (Table 2, final concentration 10 μg/ml); greater than 95% with HIV (Table 2, final concentration 30 μg/ml); greater than 95% with HIV (Table 2, final concentration 100 μg/ml). Moreover, the Cytotoxicity result in the data set on MT-4 cell (final concentration 1 μg/ml), in the data set with MT-4 cell (final concentration 3 μg/ml), in the data set on MT-4 cell (final concentration 10 μg/ml), with MT-4 cell (final concentration 30 μg/ml) and in the data set on MT-4 cell (final concentration 100 μg/ml) was “--” each time.
“sulfate ester of N-acetylneuraminic acid hexamer [DP-6-S]” yielded an IC50 in the data set with HIV (Table 4, anti-HIV, MT-4 cells) of 20 µg/mL. The Cell infection ratio with HIV (Table 4, final concentration 0.1 μg/ml) is greater than 95%; with HIV (Table 4, final concentration 0.3 μg/ml) it was greater than 95%; with HIV (Table 4, final concentration 1 μg/ml) it was greater than 95%; in the data set with HIV (Table 4, final concentration 3 μg/ml) it was greater than 95%; in the data set on HIV (Table 4, final concentration 10 μg/ml), 80%; in the data set on HIV (Table 4, final concentration 30 μg/ml), 30%. In the data set on HIV (Table 4, final concentration 100 μg/ml), the Cell infection ratio is less than 5%. The Toxicity result in the data set on MT-4 cell (final concentration 0.1 μg/ml), in the data set with MT-4 cell (final concentration 0.3 μg/ml), in the data set with MT-4 cell (final concentration 1 μg/ml), with MT-4 cell (final concentration 3 μg/ml), in the data set with MT-4 cell (final concentration 10 μg/ml) and with MT-4 cell (final concentration 30 μg/ml) was “--” throughout. Besides, the Toxicity entry in the data set with MT-4 cell (final concentration 100 μg/ml) is “--”.
